The results in this text go back to patent US20220202783A1, “Use Of ADAM9 Inhibitor As Immunomodulator” (China Medical University, priority 2019, published 2022).

Where only a bound is given, the exact number is not on record here.

Assay type in all cases: cell-based
What all share (set-up): key to effect of inhibiting tumor cell growth: “+” represents that the compound has the effect of inhibiting tumor cell growth

One series relates to HNOF. Kind of series: cytotoxicity assay in HNOF cells. The note with it: HNOF.
A short description of series [1]: cytotoxicity assay in HNOF cells. The note with it: human, HNOF cells.
A further series concerns lung cancer cells (TC1). The series is described as follows: cytotoxicity assay in TC1 cells. The note with it: for IC50: TC-1. The procedure: (§1) Please refer to FIG. 1A, FIG. 1B and Table 2, which show the analysis results of the compound of Formula (I) inhibiting ADAM9 activity. In FIG. 1A, Bm7 lung cancer cells were treated with the derivatives of the compound 6X-0310, and then cultured under anchorage-free culture condition. The expressions of ADAM9 and CDCP1 in Bm7 lung cancer cells were detected by Western blot, in which EF1α is an internal control, and mock represents Bm7 lung cancer cells without treatment. […] In the experiment, the compounds of Formula (I) of Example 1 to Example 32 were further performed cytotoxicity assay to measure the IC50 value of the compounds of Formula (I) of the present disclosure in lung cancer cell lines.

Series [2] concerns lung cancer cells (Bm7brmx2-2nd). The series is described as follows: cytotoxicity assay in Bm7brmx2-2nd cells. The procedure: as §1
In series [3] the test system is lung cancer cells (H1299). The series is described as follows: cytotoxicity assay in H1299 cells. Particulars: for effect of inhibiting tumor cell growth: H1299; for IC50: Homo sapiens, NCI-H1299. As for the experimental part:
as §1

Series [4] deals with kidney cancer cells (293). The series is described as follows: cytotoxicity assay in 293 cells. Particulars: Homo sapiens, HEK293.
Series [5] in a line: cytotoxicity assay in 293 cells. The note with it: 293.
In the next series the test system is lung cancer cells (A549). The series is described as follows: cytotoxicity assay in A549 cells. The note with it: for IC50: Homo sapiens. As for the experimental part: as §1
Series [6] concerns lung cancer cells (Bm7brmx2-1st). The series is described as follows: cytotoxicity assay in Bm7brmx2-1st cells. As for the experimental part: as §1
For series [7], the system named is lung cancer cells (Bm7brmx2). Kind of series: cytotoxicity assay in Bm7brmx2 cells. As for the experimental part: as §1

The term IC50 denotes the concentration at which inhibition is half-maximal. For the molecule `O=C1c2ccccc2C(=O)N1CCc1csc(-c2ccc(F)cc2)n1` [12W-0272], the “effect of inhibiting tumor cell growth” value (in the series on HNOF; with lung cancer cells (TC1); in series [2]; in series [3]; in series [5]; in the series on lung cancer cells (A549)) was “+” each time. Also, the “effect of inhibiting tumor cell growth” value in series [6] and in series [7] was “+” in each case. Moreover, the IC50 in [1] worked out at 600 µM; with lung cancer cells (TC1) it was 823 µM; in series [2], 264 µM; in series [3], 845 µM; in series [4] it was 134 µM; in the series with lung cancer cells (A549) it was 177 µM. Besides, the IC50 stood at 130 µM in [6] and 391 µM in series [7].
Regarding `Cc1ccc(-c2nc(CCN3C(=O)c4ccccc4C3=O)cs2)cc1` [12W-0274], the “effect of inhibiting tumor cell growth” value (in the series with HNOF; with lung cancer cells (TC1); in [2]; in [3]; in series [5]; in the series with lung cancer cells (A549)) was “+” in each case. For the same molecule, the “effect of inhibiting tumor cell growth” value in series [6] and in series [7] was “+” throughout. The half-inhibitory concentration (IC50) was 125 µM in series [1]; 161 µM in the series with lung cancer cells (TC1); 472 µM in series [2]; 203 µM in series [3]; 21.8 µM in series [4]; more than 125 µM in the series on lung cancer cells (A549). The IC50 in series [6] came out at 80.6 µM; in series [7], 913 µM.
Regarding `O=C1c2ccccc2C(=O)N1CCc1csc(-c2cccc(F)c2)n1` [12W-0275], the “effect of inhibiting tumor cell growth” value (in the series on HNOF; in the series on lung cancer cells (TC1); in series [2]; in [3]; in series [5]; in the series on lung cancer cells (A549)) was “+” throughout. The “effect of inhibiting tumor cell growth” value in series [6] and in series [7] was “+” in each case. Besides, the IC50 in series [1] amounted to 129 µM; in the series on lung cancer cells (TC1), 103 µM; in series [2] it was 441 µM; in series [3], 156 µM; in series [4] it was 109 µM; in the series with lung cancer cells (A549), 199 µM. For the same molecule, the IC50 in series [6] came to 97 µM; in [7], 212 µM.
Take `O=C1c2ccccc2C(=O)N1CCc1csc(-c2nc(CCN3C(=O)c4ccccc4C3=O)cs2)n1` [12W-0290]: the “effect of inhibiting tumor cell growth” value (in the series on HNOF; in the series on lung cancer cells (TC1); in series [2]; in series [3]; in series [5]; in the series on lung cancer cells (A549)) was “+” throughout. Moreover, the “effect of inhibiting tumor cell growth” value in series [6] and in series [7] was “+” throughout. Moreover, the IC50 in [1] is 147 µM; with lung cancer cells (TC1), 399 µM; in series [2], 3980 µM; in [3], 159 µM; in series [4], 69.4 µM; in the series on lung cancer cells (A549) it was more than 125 µM. Also, the values for the IC50 in series [6] and in series [7] were 84.2 µM and 845 µM, respectively.
